PubChem BioAssay AID330 (DTP/NCI, 2004)
Several values for one entry are separate records, joined by “and”; a condition that tells them apart may be missing. Equal values may be shown once. Toxic doses and inconclusive results are not listed. How the source made its calls: active means survival T/C of 150% or more; inactive means T/C below 125% in these data.

System: P388 leukemia ip, CD2F1 mice, survival T/C
Test: NCI In Vivo Anticancer Drug Screen. Data for tumor model P388 Leukemia (intraperitoneal) in CD2F1 (CDF1) mice
Conditions: endpoint: median survival time, higher = longer survival
Procedure, shortened: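 Mice carrying the transplanted tumor received test compound or vehicle. Survival was recorded in each group, and the value is the treated-group measurement divided by that of the vehicle-treated control group.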

[1] = dose: 60.0 mg/kg/injection, schedule: Q01DX005 (ip), vehicle: Klucel (hydroxypropylcellulose) (HPC)
[2] = dose: 120.0 mg/kg/injection, schedule: Q01DX005 (ip), vehicle: Klucel (hydroxypropylcellulose) (HPC)
[3] = dose: 240.0 mg/kg/injection, schedule: Q01DX005 (ip), vehicle: Klucel (hydroxypropylcellulose) (HPC)
[4] = dose: 25.0 mg/kg/injection, schedule: Q04DX003 (ip), vehicle: saline
[5] = dose: 50.0 mg/kg/injection, schedule: Q04DX003 (ip), vehicle: saline
[6] = dose: 100.0 mg/kg/injection, schedule: Q04DX003 (ip), vehicle: saline
[7] = dose: 25.0 mg/kg/injection, schedule: Q01DX009 (ip), vehicle: saline with Tween-80
[8] = dose: 50.0 mg/kg/injection, schedule: Q01DX009 (ip), vehicle: saline with Tween-80
[9] = dose: 100.0 mg/kg/injection, schedule: Q01DX009 (ip), vehicle: saline with Tween-80
[10] = dose: 50.0 mg/kg/injection, schedule: Q01DX005 (ip), vehicle: saline with Tween-80
[11] = dose: 100.0 mg/kg/injection, schedule: Q01DX005 (ip), vehicle: saline with Tween-80
[12] = dose: 200.0 mg/kg/injection, schedule: Q01DX005 (ip), vehicle: saline with Tween-80
[13] = dose: 1.56 mg/kg/injection, schedule: Q01DX005 (ip), vehicle: saline
[14] = dose: 3.12 mg/kg/injection, schedule: Q01DX005 (ip), vehicle: saline
[15] = dose: 60.0 mg/kg/injection, schedule: Q01DX005 (ip), vehicle: saline with Tween-80
[16] = dose: 120.0 mg/kg/injection, schedule: Q01DX005 (ip), vehicle: saline with Tween-80
[17] = dose: 240.0 mg/kg/injection, schedule: Q01DX005 (ip), vehicle: saline with Tween-80

Measured: T/C

CCN(CC)P(=O)(N1CC1C)N1CC1C (stereo not given)
active: dose: 75.0 mg/kg/injection, schedule: Q04DX003 (ip), vehicle: saline 150 % of control
inactive: dose: 33.0 mg/kg/injection, schedule: Q04DX003 (ip), vehicle: saline 109 % of control

COc1ccc2oc3c(ccc(=O)n3C)c(=O)c2c1
inactive: dose: 0.69 mg/kg/injection, schedule: Q01DX001 (ip), vehicle: saline with Tween-80 99 % of control | dose: 138.0 mg/kg/injection, schedule: Q01DX001 (ip), vehicle: saline with Tween-80 96 % of control | dose: 276.0 mg/kg/injection, schedule: Q01DX001 (ip), vehicle: saline with Tween-80 91 % of control

O=C(CCCCO)c1nc2ccccc2s1
inactive: [1] 98 % of control | [2] 102 % of control | [3] 95 % of control

C=CCN(CC=C)CCN1CCN(CCCN2c3ccccc3Sc3ccc(C(F)(F)F)cc32)CC1
inactive: dose: 12.5 mg/kg/injection, schedule: Q04DX003 (ip), vehicle: saline 101 % of control and 103 % of control | [4] 111 % of control and 112 % of control | [5] 104 % of control and 107 % of control | [6] 100 % of control and 102 % of control

CC1(NC(=O)N(CCCl)N=O)CCCC1
inactive: [7] 104 % of control | [8] 104 % of control | dose: 50.0 mg/kg/injection, schedule: Q04DX003 (ip), vehicle: saline with Tween-80 100 % of control | [9] 109 % of control | dose: 100.0 mg/kg/injection, schedule: Q04DX003 (ip), vehicle: saline with Tween-80 100 % of control

C=CCSC(=NC#N)SC
inactive: dose: 3.12 mg/kg/injection, schedule: Q01DX005 (ip), vehicle: Klucel (hydroxypropylcellulose) (HPC) 101 % of control | dose: 6.25 mg/kg/injection, schedule: Q01DX005 (ip), vehicle: Klucel (hydroxypropylcellulose) (HPC) 101 % of control | dose: 12.5 mg/kg/injection, schedule: Q01DX005 (ip), vehicle: Klucel (hydroxypropylcellulose) (HPC) 107 % of control

CO/N=C1\CC[C@@]2(C)[C@@H](CC[C@@H]3[C@@H]2CC[C@]2(C)C([C@H](C)CCCC(C)C)CC[C@@H]32)C1 (stereo not given in full)
inactive: [10] 97 % of control | [11] 95 % of control | [12] 100 % of control

O=c1[nH]cnc2c1ccc1[nH]ncc12
inactive: dose: 6.25 mg/kg/injection, schedule: Q01DX005 (ip), vehicle: saline with Tween-80 88 % of control | dose: 12.5 mg/kg/injection, schedule: Q01DX005 (ip), vehicle: saline with Tween-80 90 % of control | dose: 25.0 mg/kg/injection, schedule: Q01DX005 (ip), vehicle: saline with Tween-80 86 % of control | [10] 97 % of control | [11] 99 % of control

CN(C)c1ccc(/C=C/c2ccncc2)cc1
inactive: dose: 1.56 mg/kg/injection, schedule: Q01DX009 (ip), vehicle: saline with Tween-80 104 % of control and 106 % of control | dose: 3.13 mg/kg/injection, schedule: Q01DX009 (ip), vehicle: saline with Tween-80 104 % of control and 113 % of control | dose: 6.25 mg/kg/injection, schedule: Q01DX009 (ip), vehicle: saline with Tween-80 102 % of control and 94 % of control

CNc1ncnc2[nH]ncc12
inactive: [8] 100 % of control | dose: 200.0 mg/kg/injection, schedule: Q04DX003 (ip), vehicle: saline sonified 109 % of control

CCN=C1C=CC(=C(c2ccc(N)cc2)c2ccc(N(CC)CC)c(C)c2)C=C1
inactive: [13] 106 % of control | [14] 112 % of control

N=c1ccc(=Nc2ccc(N)c3c(O)c4ccccc4c(O)c23)c2c(=O)c3ccccc3c(=O)c1=2
inactive: [10] 103 % of control | [11] 94 % of control | [12] 92 % of control

CC(C)CC(NC(=O)CNC(=O)CN)C(=O)O (stereo not given)
inactive: dose: 60.0 mg/kg/injection, schedule: Q01DX005 (ip), vehicle: saline 102 % of control | dose: 120.0 mg/kg/injection, schedule: Q01DX005 (ip), vehicle: saline 99 % of control | dose: 240.0 mg/kg/injection, schedule: Q01DX005 (ip), vehicle: saline 106 % of control

CC(=O)C(CCCn1c(=O)c2c(ncn2C)n(C)c1=O)CCCn1c(=O)c2c(ncn2C)n(C)c1=O
inactive: [1] 102 % of control | [2] 99 % of control | [3] 104 % of control

COC(=O)c1cccc2c(N)c(N)cc(C(=O)OC)c12
inactive: [15] 100 % of control | [16] 104 % of control | [17] 106 % of control

Cc1ccccc1NP1(=O)OCCCN1Cc1ccc(Cl)c(Cl)c1 (stereo not given)
inactive: [10] 100 % of control | [11] 98 % of control | [12] 93 % of control

NCCC1C2CC3CC(C2)CC1C3 (stereo not given)
inactive: dose: 50.0 mg/kg/injection, schedule: Q01DX009 (ip), vehicle: saline 88 % of control | dose: 100.0 mg/kg/injection, schedule: Q01DX009 (ip), vehicle: saline 88 % of control

N#CC(C#N)=NNc1ccc([N+](=O)[O-])cc1Cl
inactive: dose: 6.25 mg/kg/injection, schedule: Q01DX009 (ip), vehicle: Klucel (hydroxypropylcellulose) (HPC) 103 % of control | dose: 12.5 mg/kg/injection, schedule: Q01DX009 (ip), vehicle: Klucel (hydroxypropylcellulose) (HPC) 103 % of control

O=C1c2ccsc2C(=O)c2ccsc21
inactive: dose: 12.5 mg/kg/injection, schedule: Q01DX009 (ip), vehicle: saline with Tween-80 101 % of control | [7] 105 % of control | [8] 101 % of control | [9] 99 % of control

CN(C)C1CCC(NC2=CC(=O)C=CC2=O)CC1 (stereo not given)
inactive: dose: 0.78 mg/kg/injection, schedule: Q01DX005 (ip), vehicle: saline 101 % of control | [13] 97 % of control | [14] 97 % of control

CNc1cc(=O)[nH]c(-c2ccccc2)n1
inactive: dose: 45.0 mg/kg/injection, schedule: Q01DX009 (ip), vehicle: saline with Tween-80 89 % of control | dose: 90.0 mg/kg/injection, schedule: Q01DX009 (ip), vehicle: saline with Tween-80 97 % of control | dose: 180.0 mg/kg/injection, schedule: Q01DX009 (ip), vehicle: saline with Tween-80 105 % of control

CC(=O)O/N=C/c1ccccn1
inactive: [4] 94 % of control | [5] 89 % of control and 94 % of control | [6] 100 % of control | dose: 200.0 mg/kg/injection, schedule: Q04DX003 (ip), vehicle: saline 98 % of control and 100 % of control

C[C@@H]1C[C@@]2(C)[C@@H](CC[C@@H]3[C@@H]2CC[C@]2(C)[C@@H](O)CC[C@@H]32)CC1=O
inactive: dose: 100.0 mg/kg/injection, schedule: Q04DX003 (ip), vehicle: Klucel (hydroxypropylcellulose) (HPC) 100 % of control | dose: 200.0 mg/kg/injection, schedule: Q04DX003 (ip), vehicle: Klucel (hydroxypropylcellulose) (HPC) 100 % of control

N#CCCSC(=S)N1CCN(C(=S)SCCC#N)C1=O
inactive: [10] 92 % of control | [11] 87 % of control | [12] 92 % of control

O=C(O)CC1CC(O)CC/C1=N\Nc1ccc([N+](=O)[O-])cc1[N+](=O)[O-] (stereo not given)
inactive: [10] 102 % of control | [11] 98 % of control | [12] 91 % of control

C=C(C)/C([O-])=N/[N+](C)(C)CC(O)CCCCCCCCCCCC (stereo not given)
inactive: dose: 1.25 mg/kg/injection, schedule: Q01DX009 (ip), vehicle: Klucel (hydroxypropylcellulose) (HPC) 104 % of control | dose: 2.5 mg/kg/injection, schedule: Q01DX005 (ip), vehicle: Klucel (hydroxypropylcellulose) (HPC) 100 % of control | dose: 2.5 mg/kg/injection, schedule: Q01DX009 (ip), vehicle: Klucel (hydroxypropylcellulose) (HPC) 96 % of control | dose: 5.0 mg/kg/injection, schedule: Q01DX005 (ip), vehicle: Klucel (hydroxypropylcellulose) (HPC) 101 % of control | dose: 10.0 mg/kg/injection, schedule: Q01DX005 (ip), vehicle: Klucel (hydroxypropylcellulose) (HPC) 100 % of control | dose: 10.0 mg/kg/injection, schedule: Q01DX009 (ip), vehicle: Klucel (hydroxypropylcellulose) (HPC) 91 % of control | dose: 20.0 mg/kg/injection, schedule: Q01DX005 (ip), vehicle: Klucel (hydroxypropylcellulose) (HPC) 101 % of control | dose: 40.0 mg/kg/injection, schedule: Q01DX005 (ip), vehicle: Klucel (hydroxypropylcellulose) (HPC) 92 % of control

CNC(=O)c1nnn(Cc2ccc(OC)cc2)c1Cl
inactive: dose: 50.0 mg/kg/injection, schedule: Q01DX005 (ip), vehicle: Klucel (hydroxypropylcellulose) (HPC) 91 % of control | dose: 100.0 mg/kg/injection, schedule: Q01DX005 (ip), vehicle: Klucel (hydroxypropylcellulose) (HPC) 100 % of control | dose: 200.0 mg/kg/injection, schedule: Q01DX005 (ip), vehicle: Klucel (hydroxypropylcellulose) (HPC) 100 % of control

O=C(CSCc1c(F)cccc1Cl)Nc1ccc(F)c(Cl)c1
inactive: [15] 97 % of control | [16] 91 % of control | [17] 91 % of control
